The text below walks through data of paper PMC12693701, “Glucosinolate-Derived Metabolites from Barbarea vulgaris (Brassicaceae): Evaluation of Antimicrobial, Antioxidant, and Anti-Inflammatory Potentials” (Molecules, 2025).

The subject of one experiment is P. mirabilis. The experiment can be described thus: Inhibition of biofilm formation (crystal violet). The format is cell-based, Proteus mirabilis. On the procedure: (§1) The procedure involved preparing 96-well microtiter plates (Sarstedt, Nümbrecht, Germany) by adding 100 μL of Mueller-Hinton nutrient broth to each well. A 10 μL aliquot of bacterial suspension (adjusted to 1.0 McFarland for Gram-positive bacteria and 0.5 McFarland for Gram-negative bacteria) was added to the wells. The plates were then incubated at 37 °C for 48 h to allow biofilm formation. After incubation, the wells were washed twice with 200 μL of sterile 0.85% saline to remove non-adherent and weakly adherent cells. Biofilms formed by the adherent bacteria were fixed with 100 μL of methanol until fully evaporated. The biofilms were then stained using 0.1% (w/v) crystal violet (Fluka Chemie AG, Buchs, Switzerland) and left at room temperature for 20 min. After staining, excess dye was washed off with deionized water, followed by 96% ethanol. Controls included wells containing only nutrient broth to check for sterility and nonspecific binding. Background absorbance from the sterile medium, fixative, and dye was subtracted from the OD readings of the test samples. All experiments were performed in triplicate.
(§2) To assess the inhibition of biofilm formation, 96-well microtiter plates (Sarstedt, Nümbrecht, Germany) were prepared by dispensing 100 μL of Mueller-Hinton broth into each well. From stock solutions of tested compounds (at 10 mg/mL), 100 μL was added to the first row of the plate, followed by twofold serial dilutions (from 5 to 0.039 mg/mL) using a multichannel pipette (Eppendorf AG, Hamburg, Germany). Subsequently, 10 μL of fresh bacterial suspension (adjusted to 0.5 McFarland for Gram-negative and 1.0 McFarland for Gram-positive bacteria) was added to each well. The plates were incubated at 37 °C for 48 h. After incubation, the contents of the wells were carefully removed by tapping, and the remainder of the experiment was conducted following the procedure described above.
(§3) Controls consisted of wells containing only broth or broth with the tested compounds to assess sterility and nonspecific binding. Background absorbance was subtracted from test readings as described earlier. All experiments were performed in triplicate, and tetracycline (Sigma-Aldrich, St. Louis, MO, USA), dissolved in nutrient broth, was used as a reference compound.

A further experiment relates to S. aureus ATCC 25923. Kind of experiment: Inhibition of biofilm formation (crystal violet). The format is cell-based, Staphylococcus aureus. On the procedure: as §1, §2, §3
In another experiment the test system is S. enterica. Kind of experiment: Inhibition of biofilm formation (crystal violet). The note with it: biofilm coverage reduced by 90%. The format is cell-based, Salmonella enterica. On the procedure:
as §1, §2, §3

The subject of another experiment is B. subtilis ATCC 6633. The experiment can be described thus: Inhibition of biofilm formation (crystal violet). It counts as cell-based, Bacillus subtilis. On the procedure:
as §1, §2, §3

In a further experiment the test system is K. pneumoniae. The experiment can be described thus: Inhibition of biofilm formation (crystal violet). The format is cell-based, Klebsiella pneumoniae. On the procedure: as §1, §2, §3
For experiment [1], the target named is T1, Type I-B soybean lipoxygenase (Glycine max, UniProt P08170).
T1 sequence (P08170 1-839): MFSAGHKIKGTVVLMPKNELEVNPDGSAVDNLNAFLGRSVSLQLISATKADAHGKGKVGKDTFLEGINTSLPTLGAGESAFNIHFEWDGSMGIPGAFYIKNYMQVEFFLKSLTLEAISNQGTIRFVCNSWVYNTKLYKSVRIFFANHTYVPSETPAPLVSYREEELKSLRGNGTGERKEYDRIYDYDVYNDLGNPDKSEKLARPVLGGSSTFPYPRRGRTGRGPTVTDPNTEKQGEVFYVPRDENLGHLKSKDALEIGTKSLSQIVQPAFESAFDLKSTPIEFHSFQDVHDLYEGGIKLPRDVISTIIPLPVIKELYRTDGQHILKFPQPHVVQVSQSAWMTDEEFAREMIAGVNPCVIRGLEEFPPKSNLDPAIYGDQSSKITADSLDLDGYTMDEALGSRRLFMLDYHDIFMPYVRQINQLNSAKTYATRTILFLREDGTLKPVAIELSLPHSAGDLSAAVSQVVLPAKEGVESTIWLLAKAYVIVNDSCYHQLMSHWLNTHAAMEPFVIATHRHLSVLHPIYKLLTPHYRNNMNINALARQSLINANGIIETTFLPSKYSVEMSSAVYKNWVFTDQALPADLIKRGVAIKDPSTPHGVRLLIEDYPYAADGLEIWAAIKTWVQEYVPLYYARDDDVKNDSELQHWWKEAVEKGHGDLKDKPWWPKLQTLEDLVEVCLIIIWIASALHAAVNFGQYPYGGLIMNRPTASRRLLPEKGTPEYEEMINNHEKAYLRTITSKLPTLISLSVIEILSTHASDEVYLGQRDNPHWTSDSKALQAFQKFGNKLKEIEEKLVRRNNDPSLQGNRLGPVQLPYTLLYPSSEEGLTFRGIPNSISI
Kind of experiment: LOX inhibition assay. The format is biochemical. The note with it: 100 µM; mean ± SD; read-out: Percentage of LOX Inhibition. On the procedure: Type I-B soybean lipoxygenase is a commonly used enzyme for studying the anti-inflammatory properties of various compounds [19]. The lipoxygenase (LOX) inhibition assay measures the enzyme’s ability to convert sodium linoleate to 13-hydroperoxylinoleic acid. The inhibition of the enzyme by the investigated compounds was determined by measuring the absorbance at 234 nm for each prepared sample. Specifically, the test compound, Tris buffer, an enzyme solution (5 × 10^3 units/mL in saline), and sodium linoleate (3 mM in Tris buffer, pH 9), were added to a UV cuvette, and the absorbance was recorded. […] All measurements were performed in triplicate.

Experiment [2] is described as follows: DPPH radical scavenging assay. The note with it: mean ± SD. On the procedure:
The DPPH assay was used to assess the ability of the tested compounds to scavenge reactive radical species. Stock solutions of the investigated compounds were prepared in DMSO and then diluted with methanol to a final volume of 1000 µL. An equal volume of a 50 µM DPPH solution in methanol was then added to the prepared mixture. The final concentrations of the test compounds were 25, 50, and 100 µM. After thorough mixing, the samples were incubated in the dark at room temperature for 20 to 60 min. Methanol was used as a blank, and absorbance was measured at 517 nm after incubation. All measurements were performed in triplicate.
On the technique in general: Loss of DPPH colour is used to gauge radical scavenging.

Where [3] appears, read: biofilm coverage reduced by 50%.
Where [4] appears, read: biofilm coverage reduced by 90%.

For orientation: inhibition means the relative decrease from the control value, in per cent.

Regarding `CN(C)[C@@H]1C(O)=C(C(N)=O)C(=O)[C@@]2(O)C(O)=C3C(=O)c4c(O)cccc4[C@@](C)(O)[C@H]3C[C@@H]12` [Tetracycline, reference compound], the BIC50 was 320 µg/mL with P. mirabilis (setting [3]), 250 µg/mL with S. aureus ATCC 25923 (setting [3]), “˂15.6 µg/mL” with B. subtilis ATCC 6633 (setting [3]) and 6 µg/mL in the experiment on K. pneumoniae (setting [3]). Further, the BIC90 in the experiment on P. mirabilis (setting [4]) is reported as above 1000 µg/mL; in the experiment on S. aureus ATCC 25923 (setting [4]) it was 300 µg/mL; in the experiment on S. enterica it was 180 µg/mL; in the experiment with B. subtilis ATCC 6633 (setting [4]), 15.6 µg/mL; in the experiment with K. pneumoniae (setting [4]), 125 µg/mL.

As to `O=c1c(O)c(-c2ccc(O)c(O)c2)oc2cc(O)cc(O)c12` [Quercetin, reference compound], the inhibition at 100 µM in experiment [1] is 92 ± 0.9%. For the same compound, the “DPPH Scavenging Ability” value in experiment [2] (25 µM, 20 min) was found to be 95.3 ± 0.8%; in experiment [2] (25 µM, 60 min) it was 95.1 ± 0.9%; in experiment [2] (50 µM, 20 min), 96.8 ± 1.0%; in experiment [2] (50 µM, 60 min), 96.5 ± 0.9%; in experiment [2] (100 µM, 20 min), 95.1 ± 0.9%; in experiment [2] (100 µM, 60 min), 95.4 ± 0.8%.
